From BindingDB's records for doi:10.1016/j.bmcl.2006.08.044 (Glaxosmithkline, 2006)

Each compound was assayed against Integrin alpha-4/beta-1 [T112H] (Homo sapiens, UniProt P05556+P13612, T112H) (assay: Jurkat J6 Scintillation Proximity Assay).
Description: J6 cells (1 million cells/well) were allowed to coat wheat germ agglutinin coated SPA beads (Amersham, 1 mg/well) in assay buffer. Tritiated 3H Standard Compound A and test compounds were dissolved in an appropriate solvent and diluted in assay buffer. Data are presented as mean pKi.

Ki [nM] | SMILES
0.79 | Cc1ccccc1NC(=O)Nc1ccc(-c2cccn(Cc3ccc([C@H](C)CC(=O)O)cc3)c2=O)c(Cl)c1 [(3R)-3-(4-{[3-(2-chloro-4-{[(2-methylphenyl)carbamoyl]amino}phenyl)-2-oxo-1,2-dihydropyridin-1-yl]methyl}phenyl)butanoic acid]
2.51 | Cc1ccccc1NC(=O)Nc1ccc(-c2cccn(Cc3ccc([C@H](C)CC(=O)O)cc3)c2=O)c(C)c1 [(3R)-3-(4-{[3-(2-methyl-4-{[(2-methylphenyl)carbamoyl]amino}phenyl)-2-oxo-1,2-dihydropyridin-1-yl]methyl}phenyl)butanoic acid]
1 | Cc1ccccc1NC(=O)Nc1ccc(-c2cccn(Cc3ccc([C@H](C)CC(=O)O)cc3)c2=O)cc1Cl [(3R)-3-(4-{[3-(3-chloro-4-{[(2-methylphenyl)carbamoyl]amino}phenyl)-2-oxo-1,2-dihydropyridin-1-yl]methyl}phenyl)butanoic acid]
2 | CCOc1cc(-c2cccn(Cc3ccc([C@H](C)CC(=O)O)cc3)c2=O)ccc1NC(=O)Nc1ccccc1C [(3R)-3-(4-{[3-(3-ethoxy-4-{[(2-methylphenyl)carbamoyl]amino}phenyl)-2-oxo-1,2-dihydropyridin-1-yl]methyl}phenyl)butanoic acid]
6.31 | CCc1cc(-c2cccn(Cc3ccc([C@H](C)CC(=O)O)cc3)c2=O)ccc1NC(=O)Nc1ccccc1C [(3R)-3-(4-{[3-(3-ethyl-4-{[(2-methylphenyl)carbamoyl]amino}phenyl)-2-oxo-1,2-dihydropyridin-1-yl]methyl}phenyl)butanoic acid]
1 | Cc1ccccc1NC(=O)Nc1ccc(-c2cccn(Cc3ccc([C@H](C)CC(=O)O)cc3)c2=O)cc1C [(3R)-3-(4-{[3-(3-methyl-4-{[(2-methylphenyl)carbamoyl]amino}phenyl)-2-oxo-1,2-dihydropyridin-1-yl]methyl}phenyl)butanoic acid]
3.98 | Cc1ccccc1NC(=O)Nc1ccc(-c2cccn(Cc3ccc([C@H](C)CC(=O)O)cc3)c2=O)cc1OC(F)(F)F [(3R)-3-(4-{[3-(4-{[(2-methylphenyl)carbamoyl]amino}-3-(trifluoromethoxy)phenyl)-2-oxo-1,2-dihydropyridin-1-yl]methyl}phenyl)butanoic acid]
25.1 | Cc1ccccc1NC(=O)Nc1ccc(-c2cccn(Cc3ccc([C@@H](C)CC(=O)O)cc3)c2=O)c(Cl)c1 [(3S)-3-(4-{[3-(2-chloro-4-{[(2-methylphenyl)carbamoyl]amino}phenyl)-2-oxo-1,2-dihydropyridin-1-yl]methyl}phenyl)butanoic acid]
19.9 | Cc1ccccc1NC(=O)Nc1ccc(-c2cccn(Cc3ccc([C@@H](C)CC(=O)O)cc3)c2=O)c(C)c1 [(3S)-3-(4-{[3-(2-methyl-4-{[(2-methylphenyl)carbamoyl]amino}phenyl)-2-oxo-1,2-dihydropyridin-1-yl]methyl}phenyl)butanoic acid]
2 | Cc1ccccc1NC(=O)Nc1ccc(-c2cccn(Cc3ccc([C@@H](C)CC(=O)O)cc3)c2=O)cc1Cl [(3S)-3-(4-{[3-(3-chloro-4-{[(2-methylphenyl)carbamoyl]amino}phenyl)-2-oxo-1,2-dihydropyridin-1-yl]methyl}phenyl)butanoic acid]
5.01 | CCOc1cc(-c2cccn(Cc3ccc([C@@H](C)CC(=O)O)cc3)c2=O)ccc1NC(=O)Nc1ccccc1C [(3S)-3-(4-{[3-(3-ethoxy-4-{[(2-methylphenyl)carbamoyl]amino}phenyl)-2-oxo-1,2-dihydropyridin-1-yl]methyl}phenyl)butanoic acid]
50.1 | CCc1cc(-c2cccn(Cc3ccc([C@@H](C)CC(=O)O)cc3)c2=O)ccc1NC(=O)Nc1ccccc1C [(3S)-3-(4-{[3-(3-ethyl-4-{[(2-methylphenyl)carbamoyl]amino}phenyl)-2-oxo-1,2-dihydropyridin-1-yl]methyl}phenyl)butanoic acid]
2.51 | Cc1ccccc1NC(=O)Nc1ccc(-c2cccn(Cc3ccc([C@@H](C)CC(=O)O)cc3)c2=O)cc1C [(3S)-3-(4-{[3-(3-methyl-4-{[(2-methylphenyl)carbamoyl]amino}phenyl)-2-oxo-1,2-dihydropyridin-1-yl]methyl}phenyl)butanoic acid]
19.9 | Cc1ccccc1NC(=O)Nc1ccc(-c2cccn(Cc3ccc([C@@H](C)CC(=O)O)cc3)c2=O)cc1OC(F)(F)F [(3S)-3-(4-{[3-(4-{[(2-methylphenyl)carbamoyl]amino}-3-(trifluoromethoxy)phenyl)-2-oxo-1,2-dihydropyridin-1-yl]methyl}phenyl)butanoic acid]
